ChEMBL document CHEMBL1134864, “Synthesis and biological evaluation of 9-substituted tetracycline derivatives” (2002)
Converted amounts (≈) assume the structure as drawn.

Key:
Type in all cases: functional
Staphylococcus aureus [1] = experiment: Minimum inhibition concentration against Staphylococcus aureus
Enterococcus faecalis = experiment: Minimum inhibition concentration against Enterococcus faecalis
Staphylococcus aureus [2] = experiment: Minimum inhibition concentration against Methicillin resistant Staphylococcus aureus

Row | SMILES | MIC (Staphylococcus aureus [1]) [µg/mL] | MIC (Enterococcus faecalis) [µg/mL] | MIC (Staphylococcus aureus [2]) [µg/mL]
1 | C[C@H]1c2ccc(-c3ccc([N+](=O)[O-])cc3)c(O)c2C(=O)C2=C(O)[C@]3(O)C(O)=C(C(N)=O)C(=O)[C@@H](N(C)C)C3[C@@H](O)C21 (stereo partly specified) | 3.12 (≈ 5.52 µM) | 0.78 (≈ 1.38 µM) | 0.39 (≈ 0.69 µM)
2 | C=Cc1ccc2c(c1O)C(=O)C1=C(O)[C@]3(O)C(O)=C(C(N)=O)C(=O)[C@@H](N(C)C)C3[C@@H](O)C1[C@H]2C (stereo partly specified) | 1.56 (≈ 3.32 µM) | < 0.098 | < 0.098
3 | C[C@H]1c2ccc(-c3ccc(N)cc3)c(O)c2C(=O)C2=C(O)[C@]3(O)C(O)=C(C(N)=O)C(=O)[C@@H](N(C)C)C3[C@@H](O)C21 (stereo partly specified) | 3.12 (≈ 5.83 µM) | 3.12 (≈ 5.83 µM) | 1.56 (≈ 2.91 µM)
4 | C#Cc1ccc2c(c1O)C(=O)C1=C(O)[C@]3(O)C(O)=C(C(N)=O)C(=O)[C@@H](N(C)C)C3[C@@H](O)C1[C@H]2C (stereo partly specified) | 1.56 (≈ 3.33 µM) | 0.78 (≈ 1.67 µM) | 0.39 (≈ 0.833 µM)
5 | C[C@H]1c2ccc(-c3ccccc3)c(O)c2C(=O)C2=C(O)[C@]3(O)C(O)=C(C(N)=O)C(=O)[C@@H](N(C)C)C3[C@@H](O)C21 (stereo partly specified) | 3.12 (≈ 5.99 µM) | 1.56 (≈ 3 µM) | 0.78 (≈ 1.5 µM)
6 | C[C@H]1c2cccc(O)c2C(=O)C2=C(O)[C@]3(O)C(=O)C(C(N)=O)=C(O)[C@@H](N(C)C)[C@@H]3[C@@H](O)[C@@H]21.O [DOXYCYCLINE] | > 50 | 6.25 | 6.25
7 | CN(C)c1ccc(O)c2c1C[C@H]1C[C@H]3[C@H](N(C)C)C(O)=C(C(N)=O)C(=O)[C@@]3(O)C(O)=C1C2=O [MINOCYCLINE] | 3.12 (≈ 6.82 µM) | < 0.098 | 6.25 (≈ 13.7 µM)
